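Test compounds were applied to cells in 96-well plates for 48 hours at 5 doses. Here, GI50 denotes the concentration required for 50% inhibition of growth. Definition used: TGI = concentration required for complete inhibition of growth.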
Key:
Experiment in all cases: inhibition of tumour cell growth, NCI panel, 48 h; in the data active = GI50 below about 0.43 µM; inactive = the rest
786-0 renal = tested on: 786-0 renal
A498 renal = tested on: A498 renal
A549 NSCLC = tested on: A549 NSCLC
ACHN renal = tested on: ACHN renal
BT-549 breast = tested on: BT-549 breast
CAKI-1 renal = tested on: CAKI-1 renal
CCRF-CEM leukemia = tested on: CCRF-CEM leukemia
COLO 205 colon = tested on: COLO 205 colon
DU-145 prostate = tested on: DU-145 prostate
EKVX NSCLC = tested on: EKVX NSCLC
HCC-2998 colon = tested on: HCC-2998 colon
HCT-116 colon = tested on: HCT-116 colon
HCT-15 colon = tested on: HCT-15 colon
HL-60(TB) leukemia = tested on: HL-60(TB) leukemia
HOP-62 NSCLC = tested on: HOP-62 NSCLC
HOP-92 NSCLC = tested on: HOP-92 NSCLC
HS 578T breast = tested on: HS 578T breast
HT29 colon = tested on: HT29 colon
IGROV1 ovarian = tested on: IGROV1 ovarian
K-562 leukemia = tested on: K-562 leukemia
KM12 colon = tested on: KM12 colon
LOX IMVI melanoma = tested on: LOX IMVI melanoma
M14 melanoma = tested on: M14 melanoma
MALME-3M melanoma = tested on: MALME-3M melanoma
MCF7 breast = tested on: MCF7 breast
MDA-MB-231 breast = tested on: MDA-MB-231 breast
MDA-MB-435 = tested on: MDA-MB-435
MOLT-4 leukemia = tested on: MOLT-4 leukemia
NCI-H226 lung = tested on: NCI-H226 lung
NCI-H23 lung = tested on: NCI-H23 lung
NCI-H460 lung = tested on: NCI-H460 lung
NCI-H522 lung = tested on: NCI-H522 lung
NCI/ADR-RES ovarian = tested on: NCI/ADR-RES ovarian
OVCAR-3 ovarian = tested on: OVCAR-3 ovarian
OVCAR-4 ovarian = tested on: OVCAR-4 ovarian
OVCAR-5 ovarian = tested on: OVCAR-5 ovarian
OVCAR-8 ovarian = tested on: OVCAR-8 ovarian
PC-3 prostate = tested on: PC-3 prostate
RPMI-8226 leukemia = tested on: RPMI-8226 leukemia
RXF 393 renal = tested on: RXF 393 renal
SF-268 CNS = tested on: SF-268 CNS
SF-295 CNS = tested on: SF-295 CNS
SF-539 CNS = tested on: SF-539 CNS
SK-MEL-2 melanoma = tested on: SK-MEL-2 melanoma
SK-MEL-28 melanoma = tested on: SK-MEL-28 melanoma
SK-MEL-5 melanoma = tested on: SK-MEL-5 melanoma
SK-OV-3 ovarian = tested on: SK-OV-3 ovarian
SN12C renal = tested on: SN12C renal
SNB-19 CNS = tested on: SNB-19 CNS
SNB-75 CNS = tested on: SNB-75 CNS
SR leukemia = tested on: SR leukemia
SW-620 colon = tested on: SW-620 colon
T-47D breast = tested on: T-47D breast
TK-10 renal = tested on: TK-10 renal
U251 CNS = tested on: U251 CNS
UACC-257 melanoma = tested on: UACC-257 melanoma
UACC-62 melanoma = tested on: UACC-62 melanoma
UO-31 renal = tested on: UO-31 renal

O=S1CCN(Cc2ccc(-c3ccc4ncnc(Nc5ccc(OCc6ccccc6)c(Cl)c5)c4c3)o2)CC1
> 20.7 µM: TGI (HL-60(TB) leukemia)
24.3 µM: TGI (A498 renal)
> 25 µM: TGI (786-0 renal) | TGI (A549 NSCLC) | TGI (ACHN renal) | TGI (CAKI-1 renal) | TGI (CCRF-CEM leukemia) | TGI (COLO 205 colon) | TGI (DU-145 prostate) | TGI (HCT-116 colon) | TGI (HCT-15 colon) | TGI (HOP-62 NSCLC) | TGI (HS 578T breast) | TGI (IGROV1 ovarian) | TGI (K-562 leukemia) | TGI (KM12 colon) | TGI (M14 melanoma) | TGI (MALME-3M melanoma) | TGI (MCF7 breast) | TGI (MDA-MB-231 breast) | TGI (MDA-MB-435) | TGI (MOLT-4 leukemia) | TGI (NCI-H226 lung) | TGI (NCI-H23 lung) | TGI (NCI-H460 lung) | TGI (NCI-H522 lung) | TGI (NCI/ADR-RES ovarian) | TGI (OVCAR-3 ovarian) | TGI (OVCAR-4 ovarian) | TGI (OVCAR-5 ovarian) | TGI (OVCAR-8 ovarian) | TGI (PC-3 prostate) | TGI (RPMI-8226 leukemia) | TGI (RXF 393 renal) | TGI (SF-268 CNS) | TGI (SF-295 CNS) | TGI (SF-539 CNS) | TGI (SK-MEL-28 melanoma) | TGI (SK-OV-3 ovarian) | TGI (SN12C renal) | TGI (SNB-19 CNS) | TGI (SNB-75 CNS) | TGI (SR leukemia) | TGI (SW-620 colon) | TGI (T-47D breast) | TGI (TK-10 renal) | TGI (U251 CNS) | TGI (UACC-257 melanoma) | TGI (UO-31 renal)
> 15.7 µM: TGI (SK-MEL-5 melanoma)
23.4 µM: TGI (HCC-2998 colon)
active: GI50 (EKVX NSCLC) 0.112 µM | GI50 (SK-OV-3 ovarian) 0.0917 µM | GI50 (TK-10 renal) 0.116 µM
inactive: GI50 (786-0 renal) 10.7 µM | GI50 (A498 renal) 5.82 µM | GI50 (A549 NSCLC) 8.02 µM | GI50 (ACHN renal) 0.656 µM | GI50 (BT-549 breast) 9.62 µM | GI50 (CAKI-1 renal) 0.635 µM | GI50 (CCRF-CEM leukemia) 9.07 µM | GI50 (COLO 205 colon) 11.7 µM | GI50 (DU-145 prostate) 7.52 µM | GI50 (HCC-2998 colon) 7.19 µM | GI50 (HCT-116 colon) 11.3 µM | GI50 (HCT-15 colon) 7.78 µM | GI50 (HL-60(TB) leukemia) 10.6 µM | GI50 (HOP-62 NSCLC) > 25 µM | GI50 (HOP-92 NSCLC) 4.91 µM | GI50 (HS 578T breast) > 21.6 µM | GI50 (HT29 colon) 6.9 µM | GI50 (IGROV1 ovarian) 0.561 µM | GI50 (K-562 leukemia) 10.1 µM | GI50 (KM12 colon) 9.22 µM | GI50 (LOX IMVI melanoma) 8.51 µM | GI50 (M14 melanoma) 10 µM | GI50 (MALME-3M melanoma) 10.1 µM | GI50 (MCF7 breast) > 15.2 µM | GI50 (MDA-MB-231 breast) 14.9 µM | GI50 (MDA-MB-435) 8.95 µM | GI50 (MOLT-4 leukemia) 9.06 µM | GI50 (NCI-H226 lung) > 16.5 µM | GI50 (NCI-H23 lung) 13.3 µM | GI50 (NCI-H460 lung) 10.2 µM | GI50 (NCI-H522 lung) 3.68 µM | GI50 (NCI/ADR-RES ovarian) 8.08 µM | GI50 (OVCAR-3 ovarian) 8.08 µM | GI50 (OVCAR-4 ovarian) 13.5 µM | GI50 (OVCAR-5 ovarian) 12.1 µM | GI50 (OVCAR-8 ovarian) 11.7 µM | GI50 (PC-3 prostate) 11.8 µM | GI50 (RPMI-8226 leukemia) 12.4 µM | GI50 (RXF 393 renal) > 15.3 µM | GI50 (SF-268 CNS) > 22.3 µM | GI50 (SF-295 CNS) 9.76 µM | GI50 (SF-539 CNS) > 15.3 µM | GI50 (SK-MEL-2 melanoma) 7.46 µM | GI50 (SK-MEL-28 melanoma) 14 µM | GI50 (SK-MEL-5 melanoma) 7.9 µM | GI50 (SN12C renal) 14.8 µM | GI50 (SNB-19 CNS) > 25 µM | GI50 (SNB-75 CNS) > 16.6 µM | GI50 (SR leukemia) 7.57 µM | GI50 (SW-620 colon) 8.63 µM | GI50 (T-47D breast) 5.72 µM | GI50 (U251 CNS) 14.9 µM | GI50 (UACC-257 melanoma) 8.55 µM | GI50 (UACC-62 melanoma) 10.7 µM | GI50 (UO-31 renal) 6.32 µM
> 21.2 µM: TGI (HOP-92 NSCLC)
> 18.8 µM: TGI (HT29 colon)
16.7 µM: TGI (SK-MEL-2 melanoma)
> 19.9 µM: TGI (EKVX NSCLC)
> 23.4 µM: TGI (UACC-62 melanoma)
> 16.9 µM: TGI (LOX IMVI melanoma)
> 20.5 µM: TGI (BT-549 breast)

— PubChem BioAssay (NCI)
